Measurements from patent publication US8461329B2, “Isoquinoline derivative” (Taisho Pharmaceutical Co., Ltd., priority 2008, dated 2013).

Target: T1, CRTH2 (KB8 cells) (Homo sapiens, UniProt Q9Y5Y4)
T1 construct: host or cells: KB8 cells (human CRTH2 expression cell)
T1 sequence (Q9Y5Y4 1-395): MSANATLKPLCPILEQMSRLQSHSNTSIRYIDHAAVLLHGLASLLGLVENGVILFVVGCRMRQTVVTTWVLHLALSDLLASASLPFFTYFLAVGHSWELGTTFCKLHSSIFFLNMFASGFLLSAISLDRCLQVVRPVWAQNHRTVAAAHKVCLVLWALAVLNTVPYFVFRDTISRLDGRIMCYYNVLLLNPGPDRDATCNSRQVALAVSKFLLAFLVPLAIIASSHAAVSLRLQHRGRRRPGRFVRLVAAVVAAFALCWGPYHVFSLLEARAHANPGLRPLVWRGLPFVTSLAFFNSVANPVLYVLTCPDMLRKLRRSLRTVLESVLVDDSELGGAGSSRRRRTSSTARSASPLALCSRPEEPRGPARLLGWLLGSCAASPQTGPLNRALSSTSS
Test: CRTH2 antagonist test (PGD2-induced intracellular calcium ion concentration increase in KB8 cells)
Type: cell-based
Conditions: PGD2 100 nM, Fluo-4 calcium fluorescence, read-out: CRTH2 antagonist activity IC50 value
Experimental: The antagonist activity of the compound of the present invention was considered by using the intracellular calcium ion concentration increase reaction induced when the prostaglandin D2 was added to KB8 cells.
Fluo-4-AM (4-(6-acetoxymethoxy-2,7-difluoro-3-oxo-9-xanthenyl)-4′-methyl-2,2′-(ethylenedioxy)dianilide-N,N,N′,N′-tetraacetic acid tetrakis(acetoxymethyl) ester (SIGMA, final concentration: 1 μM) was added to KB8 cells, and the cells were incubated at 37° C. for 30 min, washed with phosphate buffer (Invitrogen), and then suspended in Hank's balanced salt solution (Invitrogen)) containing a reaction buffer solution (10 mM HEPES (Invitrogen), and 1 mM calcium chloride (SIGMA). The suspension was dispensed in a 96 well plate (Nunc) so that 2×10^5 cells/well were placed, and the compound of the present invention and PGD2 (final concentration: 100 nM) were added. The fluorescence intensity thereof was measured over time by using FDSS6000 (Hamamatsu Photonics), and thus the maximum fluorescence intensity value “d” was obtained. The same procedure was carried out in the absence of the compound, and the maximum fluorescence intensity value “e” was obtained; and the same procedure was carried out in the absence of the compound and […], and the maximum fluorescence intensity value “f” was obtained.
The calcium ion concentration increase inhibition rate of a compound was calculated by the following calculation formula: Inhibitory rate(%)=[1−(d−f)/(e−f)]×100
That is to say, by using calcium ion concentration increase inhibitory rates of compounds to be tested having various concentrations, the IC50 value was calculated according to a dose-dependent inhibition curve analyzed by using XLfit (IDBS) as a data analysis software, and the value was defined as an indicator of the antagonist activity. In Tables, A denotes an inhibitory activity showing the IC50 value of less than 50 nM; B denotes an inhibitory activity showing the IC50 value of 50 nM or greater and less than 500 nM; C denotes an inhibitory activity showing the IC50 value of 500 nM or greater and less than 1000 nM; and D denotes an inhibitory activity showing the IC50 value of 1000 nM or greater.

IC50 [nM] | Compound
20 | O=C(O)Cc1cnc(Cc2ccc(C(=O)NCCc3ccc(C(F)(F)F)cc3)cc2)c2ccccc12 [Example 201]

Same assay, conditions: PGD2 final concentration 100 nM, Fluo-4-AM fluorescence, read-out: antagonist activity (IC50 value, inhibition of calcium ion concentration increase)

IC50 [nM] | Compound
50 to 500 | O=C(O)Cc1cnc(C(=O)c2ccc(NC(=O)C3CCCCC3)cc2)c2ccccc12 [Example 76]
< 50 | O=C(O)Cc1cnc(C(=O)c2ccc(NC(=O)CCC3CCCCC3)cc2)c2ccccc12 [Example 77]
500 to 1000 | O=C(O)Cc1cnc(C(=O)c2ccc(NC(=O)c3cccc(Cl)c3Cl)cc2)c2ccccc12 [Example 30]
50 to 500 | O=C(O)Cc1cnc(C(=O)c2ccc(NC(=O)C3Cc4ccccc4C3)cc2)c2ccccc12 [Example 60]
50 to 500 | O=C(O)Cc1cnc(C(=O)c2ccc(NC(=O)CC34CC5CC(CC(C5)C3)C4)cc2)c2ccccc12 [Example 53]
< 50 | O=C(O)Cc1cnc(C(=O)c2ccc(C(=O)Nc3ccc(Cl)cc3)cc2)c2ccccc12 [Example 140]
≥ 1000 | O=C(O)Cc1cnc(C(=O)c2ccc(NC(=O)c3ccncc3)cc2)c2ccccc12 [Example 51]
500 to 1000 | O=C(O)Cc1cnc(C(=O)c2ccc(NC(=O)c3ccc4cccnc4n3)cc2)c2ccccc12 [Example 105]
500 to 1000 | O=C(O)Cc1cnc(C(=O)c2ccc(NC(=O)c3ccc(F)cc3Cl)cc2)c2ccccc12 [Example 47]
≥ 1000 | O=C(O)Cc1cnc(C(=O)c2ccc(NC(=O)c3cccc4cccnc34)cc2)c2ccccc12 [Example 104]
50 to 500 | O=C(O)Cc1cnc(C(=O)c2ccc(NC(=O)c3c[nH]c4ncccc34)cc2)c2ccccc12 [Example 95]
≥ 1000 | COc1ccccc1C(=O)Nc1ccc(C(=O)c2ncc(CC(=O)O)c3ccccc23)cc1 [Example 40]
≥ 1000 | O=C(O)Cc1cnc(C(=O)c2ccc(NC(=O)c3c(Cl)cccc3Cl)cc2)c2ccccc12 [Example 33]
< 50 | O=C(O)Cc1cnc(C(=O)c2ccc(NC(=O)c3ccc(Cl)c(F)c3)cc2)c2ccccc12 [Example 31]
< 50 | O=C(O)Cc1cnc(C(=O)c2ccc(NC(=O)c3ccccc3)cc2)c2ccccc12 [Example 38]
500 to 1000 | O=C(O)Cc1cnc(C(=O)c2ccc(NC(=O)c3ccccc3F)cc2)c2ccccc12 [Example 39]

IC50 [nM] | Compound
< 50 | Cc1cccc(C(=O)Nc2ccc(C(=O)c3ncc(CC(=O)O)c4ccccc34)cc2)c1 [Example 73]
< 50 | O=C(O)Cc1cnc(C(=O)c2ccc(NC(=O)c3ccc4ccccc4n3)cc2)c2ccccc12 [Example 93]
50 to 500 | Cc1ccccc1C(=O)Nc1ccc(C(=O)c2ncc(CC(=O)O)c3ccccc23)cc1 [Example 26]
500 to 1000 | Cc1c(F)c(F)c(C(=O)Nc2ccc(C(=O)c3ncc(CC(=O)O)c4ccccc34)cc2)c(F)c1F [Example 125]
< 50 | O=C(O)Cc1cnc(C(=O)c2ccc(NC(=O)c3ccc(Br)cc3)cc2)c2ccccc12 [Example 32]
≥ 1000 | O=C(O)Cc1cnc(C(=O)c2ccc(NC(=O)c3cscn3)cc2)c2ccccc12 [Example 58]
50 to 500 | O=C(O)Cc1cnc(C(=O)c2ccc(NC(=O)c3cn4ccccc4n3)cc2)c2ccccc12 [Example 121]
< 50 | CC(C)Oc1ccc(C(=O)Nc2ccc(C(=O)c3ncc(CC(=O)O)c4ccccc34)cc2)cc1 [Example 115]
< 50 | O=C(O)Cc1cnc(C(=O)c2ccc(NC(=O)c3ccc(O)cc3)cc2)c2ccccc12 [Example 89]
50 to 500 | O=C(O)Cc1cnc(C(=O)c2ccc(NC(=O)C3=CCCCC3)cc2)c2ccccc12 [Example 90]
< 50 | O=C(O)Cc1cnc(C(=O)c2ccc(NC(=O)c3ccc(F)cc3)cc2)c2ccccc12 [Example 28]
< 50 | Cc1ccc(C(=O)Nc2ccc(C(=O)c3ncc(CC(=O)O)c4ccccc34)cc2)cc1Cl [Example 99]
≥ 1000 | O=C(O)Cc1cnc(C(=O)c2ccc(NC(=O)c3ccccc3Cl)cc2)c2ccccc12 [Example 24]
< 50 | O=C(O)Cc1cnc(C(=O)c2ccc(NC(=O)c3cc4ccccc4s3)cc2)c2ccccc12 [Example 119]
50 to 500 | O=C(O)Cc1cnc(C(=O)c2ccc(NC(=O)c3ccc4ncccc4c3)cc2)c2ccccc12 [Example 67]
50 to 500 | Cc1ccc(S(=O)(=O)NCC(=O)Nc2ccc(C(=O)c3ncc(CC(=O)O)c4ccccc34)cc2)cc1 [Example 68]

Second part, the molecule before the results:

Compound | IC50 [nM]
CC(C)Oc1ccc(CCNC(=O)c2ccc(Cc3ncc(CC(=O)O)c4ccccc34)cc2)cc1 [Example 225] | < 50
COc1cccc(CCNC(=O)c2ccc(Cc3ncc(CC(=O)O)c4ccccc34)cc2)c1 [Example 197] | 50 to 500
O=C(O)Cc1cnc(Cc2ccc(C(=O)NCCc3cc(F)cc(F)c3)cc2)c2ccccc12 [Example 212] | 50 to 500
O=C(O)Cc1cnc(Cc2ccc(C(=O)NCCc3cc4cc(F)ccc4[nH]3)cc2)c2ccccc12 [Example 235] | < 50
O=C(O)Cc1cnc(Cc2ccc(C(=O)NCCc3ccc([N+](=O)[O-])cc3)cc2)c2ccccc12 [Example 174] | 50 to 500
O=C(O)Cc1cnc(Cc2ccc(C(=O)NCCc3cc(Cl)ccc3Cl)cc2)c2ccccc12 [Example 224] | 50 to 500
O=C(O)Cc1cnc(Cc2ccc(C(=O)NCCc3cccc(Cl)c3F)cc2)c2ccccc12 [Example 244] | < 50
O=C(O)Cc1cnc(Cc2ccc(C(=O)NCCc3ccccc3)cc2)c2ccccc12 [Example 161, (1-{4-[(2-phenylethyl)carbamoyl]benzyl}isoquinolin-4-yl)acetic acid] | 50 to 500
O=C(O)Cc1cnc(Cc2ccc(C(=O)NCCc3c(Cl)cccc3Cl)cc2)c2ccccc12 [Example 191] | 50 to 500
O=C(O)Cc1cnc(Cc2ccc(C(=O)NCCc3ccc(F)c(F)c3)cc2)c2ccccc12 [Example 229] | < 50
O=C(O)Cc1cnc(Cc2ccc(C(=O)NCCOc3ccc(Cl)cc3)cc2)c2ccccc12 [Example 178] | 50 to 500
O=C(O)Cc1cnc(Cc2ccc(OCCOc3ccc(Cl)cc3)cc2)c2ccccc12 [Example 151] | 50 to 500
O=C(Cc1cnc(Cc2ccc(C(=O)NCCc3ccc(Cl)cc3)cc2)c2ccccc12)NO [Example 258, N-[2-(4-chlorophenyl)ethyl]-4-({4-[2-(hydroxyamino)-2-oxoethyl]isoquinolin-1-yl}methyl)benzamide] | ≥ 1000
O=C(O)Cc1cnc(Cc2ccc(C(=O)NCCc3ccc(O)cc3)cc2)c2ccccc12 [Example 196] | 500 to 1000
O=C(O)Cc1cnc(Cc2ccc(C(=O)NCCc3ccc(OC(F)(F)F)cc3)cc2)c2ccccc12 [Example 203] | < 50
COc1ccc(CCNC(=O)c2ccc(Cc3ncc(CC(=O)O)c4ccccc34)cc2)cc1 [Example 156] | 50 to 500
O=C(O)Cc1cnc(Cc2ccc(C(=O)NCCc3cccc(Cl)c3Cl)cc2)c2ccccc12 [Example 226] | < 50
Cc1ccccc1CCNC(=O)c1ccc(Cc2ncc(CC(=O)O)c3ccccc23)cc1 [Example 167] | < 50
O=C(O)Cc1cnc(Cc2ccc(C(=O)NCCc3ccc(C(F)(F)F)cc3)cc2)c2ccccc12 [Example 201] | < 50
Cc1c(C)c(C)c(CCNC(=O)c2ccc(Cc3ncc(CC(=O)O)c4ccccc34)cc2)c(C)c1C [Example 192] | < 50
Cc1cc(C)cc(CCNC(=O)c2ccc(Cc3ncc(CC(=O)O)c4ccccc34)cc2)c1 [Example 231] | < 50
O=C(O)Cc1cnc(Cc2ccc(C(=O)NCCc3ccccc3Cl)cc2)c2ccccc12 [Example 162] | < 50
O=C(O)Cc1cnc(Cc2ccc(C(=O)NCCc3ccc(F)c(Cl)c3)cc2)c2ccccc12 [Example 210] | < 50
O=C(O)Cc1cnc(Cc2ccc(C(=O)NCCc3nc4ccccc4[nH]3)cc2)c2ccccc12 [Example 248] | 50 to 500
O=C(O)Cc1cnc(Cc2ccc(C(=O)NCCc3cccc(F)c3)cc2)c2ccccc12 [Example 182] | 50 to 500
O=C(O)Cc1cnc(Cc2ccc(C(=O)NCCc3ccccc3Br)cc2)c2ccccc12 [Example 183] | < 50
O=C(O)Cc1cnc(Cc2ccc(OCCc3ccc(Cl)cc3)cc2)c2ccccc12 [Example 149, (1-{4-[2-(4-chlorophenyl)ethoxy]benzyl}isoquinolin-4-yl)acetic acid] | 500 to 1000
